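Tested at 5 concentrations; 48 h exposure; 96-well plates; endpoints linearly interpolated, else capped at highest concentration. TGI: total growth inhibition.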
Tests used:
Test in all cases: DTP human tumour cell line panel, 48 h
[1] = tested on: COLO 205 colon
[2] = tested on: CAKI-1 renal
[3] = tested on: HOP-92 NSCLC
[4] = tested on: U251 CNS
[5] = tested on: SK-OV-3 ovarian
[6] = tested on: MDA-MB-231 breast
[7] = tested on: OVCAR-8 ovarian
[8] = tested on: HL-60(TB) leukemia
[9] = tested on: NCI-H23 lung
[10] = tested on: OVCAR-4 ovarian
[11] = tested on: SF-268 CNS
[12] = tested on: MDA-MB-435
[13] = tested on: SK-MEL-2 melanoma
[14] = tested on: 786-0 renal
[15] = tested on: SR leukemia
[16] = tested on: UACC-257 melanoma
[17] = tested on: MALME-3M melanoma
[18] = tested on: SF-295 CNS
[19] = tested on: SF-539 CNS
[20] = tested on: SK-MEL-28 melanoma
[21] = tested on: HCT-116 colon
[22] = tested on: UACC-62 melanoma
[23] = tested on: ACHN renal
[24] = tested on: OVCAR-5 ovarian
[25] = tested on: HT29 colon
[26] = tested on: SNB-75 CNS
[27] = tested on: A498 renal
[28] = tested on: TK-10 renal
[29] = tested on: IGROV1 ovarian
[30] = tested on: BT-549 breast
[31] = tested on: T-47D breast
[32] = tested on: NCI-H460 lung
[33] = tested on: PC-3 prostate
[34] = tested on: MOLT-4 leukemia
[35] = tested on: A549 NSCLC
[36] = tested on: RPMI-8226 leukemia
[37] = tested on: SW-620 colon
[38] = tested on: NCI/ADR-RES ovarian
[39] = tested on: NCI-H226 lung
[40] = tested on: RXF 393 renal
[41] = tested on: M14 melanoma
[42] = tested on: NCI-H522 lung
[43] = tested on: UO-31 renal
[44] = tested on: CCRF-CEM leukemia
[45] = tested on: SK-MEL-5 melanoma
[46] = tested on: EKVX NSCLC
[47] = tested on: KM12 colon
[48] = tested on: MDA-N
[49] = tested on: HS 578T breast
[50] = tested on: SN12C renal
[51] = tested on: HCT-15 colon
[52] = tested on: SNB-19 CNS
[53] = tested on: K-562 leukemia
[54] = tested on: DU-145 prostate
[55] = tested on: OVCAR-3 ovarian
[56] = tested on: HOP-62 NSCLC
[57] = tested on: HCC-2998 colon
[58] = tested on: LOX IMVI melanoma

SMILES: NCCC1([N+](=O)[O-])C=CN=CC1 (configuration not stated)
- TGI [1]: > 100 µM
- TGI [2]: > 100 µM
- TGI [3]: 26.8 µM
- TGI [4]: > 100 µM
- TGI [5]: > 100 µM
- TGI [6]: > 100 µM
- TGI [7]: > 100 µM
- TGI [8]: > 100 µM
- TGI [9]: > 100 µM
- TGI [10]: > 100 µM
- TGI [11]: > 100 µM
- TGI [12]: > 100 µM
- TGI [13]: > 100 µM
- TGI [14]: > 100 µM
- TGI [15]: > 100 µM
- TGI [16]: > 100 µM
- TGI [17]: > 100 µM
- TGI [18]: > 100 µM
- TGI [19]: > 100 µM
- TGI [20]: > 100 µM
- TGI [21]: > 100 µM
- TGI [22]: > 100 µM
- TGI [23]: > 100 µM
- TGI [24]: > 100 µM
- TGI [25]: > 100 µM
- TGI [26]: > 100 µM
- TGI [27]: > 100 µM
- TGI [28]: > 100 µM
- TGI [29]: > 100 µM
- TGI [30]: > 100 µM
- TGI [31]: > 100 µM
- TGI [32]: > 100 µM
- TGI [33]: > 100 µM
- TGI [34]: > 100 µM
- TGI [35]: > 100 µM
- TGI [36]: > 100 µM
- TGI [37]: > 100 µM
- TGI [38]: > 100 µM
- TGI [39]: > 100 µM
- TGI [40]: > 100 µM
- TGI [41]: > 100 µM
- TGI [42]: > 100 µM
- TGI [43]: > 100 µM
- TGI [44]: > 100 µM
- TGI [45]: > 100 µM
- TGI [46]: > 100 µM
- TGI [47]: > 100 µM
- TGI [48]: > 100 µM
- TGI [49]: > 100 µM
- TGI [50]: > 100 µM
- TGI [51]: > 100 µM
- TGI [52]: > 100 µM
- TGI [53]: > 100 µM
- TGI [54]: > 100 µM

SMILES: COC(=O)[C@@H]1CCc2nc3ccccc3c(=O)n21
- TGI [1]: > 100 µM
- TGI [2]: > 100 µM
- TGI [55]: > 100 µM
- TGI [3]: > 100 µM
- TGI [4]: > 100 µM
- TGI [5]: > 100 µM
- TGI [6]: > 100 µM
- TGI [7]: > 100 µM
- TGI [8]: > 100 µM
- TGI [9]: > 100 µM
- TGI [10]: > 100 µM
- TGI [11]: > 100 µM
- TGI [56]: > 100 µM
- TGI [12]: > 100 µM
- TGI [57]: > 100 µM
- TGI [13]: > 100 µM
- TGI [14]: > 100 µM
- TGI [15]: > 100 µM
- TGI [16]: > 100 µM
- TGI [18]: > 100 µM
- TGI [20]: > 100 µM
- TGI [21]: > 100 µM
- TGI [22]: > 100 µM
- TGI [23]: > 100 µM
- TGI [24]: > 100 µM
- TGI [25]: > 100 µM
- TGI [26]: > 100 µM
- TGI [27]: > 100 µM
- TGI [28]: > 100 µM
- TGI [29]: > 100 µM
- TGI [30]: > 100 µM
- TGI [31]: > 100 µM
- TGI [32]: > 100 µM
- TGI [34]: > 100 µM
- TGI [35]: > 100 µM
- TGI [36]: > 100 µM
- TGI [37]: > 100 µM
- TGI [38]: > 100 µM
- TGI [39]: > 100 µM
- TGI [41]: > 100 µM
- TGI [42]: > 100 µM
- TGI [43]: > 100 µM
- TGI [44]: > 100 µM
- TGI [45]: > 100 µM
- TGI [58]: > 100 µM
- TGI [46]: > 100 µM
- TGI [47]: > 100 µM
- TGI [48]: > 100 µM
- TGI [49]: > 100 µM
- TGI [50]: > 100 µM
- TGI [51]: > 100 µM
- TGI [53]: > 100 µM
- TGI [54]: > 100 µM

Reference: PubChem BioAssay (NCI)
